# Legend:
# Botrytis cinerea [1] = assay: Detached bean leaf bioassay, fungal control; format: in vivo; conditions: detached bean leaf (Phaseolus vulgaris), three days after inoculation, 100 minus percent necrotic area
# Description: Compound solution: Compound solutions were prepared by diluting compound stock solutions (1.0% w/v compound in DMSO) to 200 ppm with 0.01% w/v Triton X-100.
# Spore solution preparation: Botrytis cinerea spores were taken from 6-week-old cultures grown at 22C on full strength potato dextrous agar (PDA) plates and harvested in 1:16 frozen orange juice concentrate:water. Botrytis cinerea spore solutions were prepared by diluting spore cultures to 5×10^4 spores/mL with 1:16 frozen orange juice concentrate:water.
# Plant material: Middle trifoliate leaves of greenhouse grown Phaseolus vulgaris (Bush bean cv. Blue Lake 274) were excised and placed on a plastic grid above a tray containing moist towels.
# Treatment method: One half of the adaxial surface of the leaf was treated with the compound solution (100:L) using a 3 cm Bacti Cell Spreader. A blank consisted of 0.01% w/v Triton X-100. A commercial fungicide control (200 ppm diluted with water) consisted of Scala. […]
# Fungal control rating: Three days after inoculation with Botrytis, the percent necrotic area under the inoculation droplet was determined. Since the areas under the blank (0.01% w/v Triton X-100) were 100% infected, fungal control was expressed as 100 minus the percent necrotic area, and thus 0% infected is 100% fungal control (n=3 leaves/compound, 5 inoculation droplets/leaf, Table 2).
# Pythium aphanidermatum = assay: Contact evaluation (microtiter plate); format: cell-based; design: key: Full: fungal inhibition was rated as full, partial, or none; Partial: fungal inhibition was rated as full, partial, or none; None: fungal inhibition was rated as full, partial, or none
# Description: (§1) Compound solution: Contact evaluations were conducted to determine the anti-fungal activity of each compound against Botrytis cinerea, Sclerotinia sclerotiorum, Pythium aphanidermatum, Rhizoctonia solani, Cercospora arachidicola, Mycosphaerella fijiensis, and Monilinia laxa. Five milligrams of each compound were dissolved in 0.5 milliliter of DMSO for a compound stock solution of 1.0% w/v. Compound stock solutions were serial diluted with DMSO to 20, 10, and 2 ppm final well concentration. Fungi preparation: Botrytis cinerea spores were taken from 6-week-old cultures grown at 22C on full strength potato dextrous agar (PDA) plates. Sclerotinia sclerotiorum, Pythium aphanidermatum, Rhizoctonia solani, and Monilinia laxa mycelia were taken from 4- to 10-day-old shake flask cultures grown at room temperature on full strength potato dextrous broth (PDB). Cercospora arachidicola mycelia were taken from 10- to 14-day-old shake flask cultures grown at room temperature on a full strength PDB amended with peanut oil. Mycosphaerella fijiensis mycelia were taken from 10- to 14-day-old shake flask cultures grown at room temperature on V8 juice broth. Sclerotinia sclerotiorum, Pythium aphanidermatum, Rhizoctonia solani, Cercospora arachidicola, and Mycosphaerella fijiensis mycelia (0.4 g mycelia) were blended for 45 seconds in 20 mL sterile de-ionized water. Monilinia laxa mycelia (1 g mycelia) was blended for 45 seconds in 30 mL of sterile de-ionized water. Botrytis cinerea spores were diluted with quarter strength PDB to 1×10^5 spores/mL final well concentration. All mycelia were diluted in water (1:5 mycelia:water) before distributing into the wells. Microtiter plate preparation: Compound solution (10:L), quarter strength PDB (900:L) and fungi preparation (100:L) were sequentially distributed into 48-well microtiter plates (n=3 replications/compound/rate). A blank consisted of quarter strength PDB and fungi preparation. Commercial fungicide controls (100 ppm diluted with water) consisted of Scala for Botrytis cinerea, Dithane F-45 for Mycosphaerella fijiensis, and Benlate for Sclerotinia sclerotiorum, Pythium aphanidermatum, Rhizoctonia solani, Cercospora arachidicola, and Monilinia laxa. Plates were shaken in a circular rotator at room temperature for 20 minutes, then incubated at 25C for 24 to 72 hours, depending on the pathogen. Fungal control ratings: Fungal growth in wells containing the compounds were compared to the positive control and fungal inhibition was rated as full, partial, or none. Final readings were the average of the three wells (Table 1).
# Rhizoctonia solani = assay: Contact evaluation (microtiter plate); format: cell-based; design: key: Full: fungal inhibition was rated as full, partial, or none; Partial: fungal inhibition was rated as full, partial, or none; None: fungal inhibition was rated as full, partial, or none; conditions: Rhizoctinia solani
# Description: as §1
# Botrytis cinerea [2] = assay: Contact evaluation (microtiter plate); format: cell-based; design: key: Full: fungal inhibition was rated as full, partial, or none; Partial: fungal inhibition was rated as full, partial, or none; None: fungal inhibition was rated as full, partial, or none
# Description: as §1
# Monilinia laxa = assay: Contact evaluation (microtiter plate); format: cell-based; design: key: Full: fungal inhibition was rated as full, partial, or none; Partial: fungal inhibition was rated as full, partial, or none; None: fungal inhibition was rated as full, partial, or none
# Description: as §1
# Mycosphaerella fijiensis = assay: Contact evaluation (microtiter plate); format: cell-based; design: key: Full: fungal inhibition was rated as full, partial, or none; Partial: fungal inhibition was rated as full, partial, or none; None: fungal inhibition was rated as full, partial, or none
# Description: as §1
# Cercospora arachidicola = assay: Contact evaluation (microtiter plate); format: cell-based; design: key: Full: fungal inhibition was rated as full, partial, or none; Partial: fungal inhibition was rated as full, partial, or none; None: fungal inhibition was rated as full, partial, or none
# Description: as §1
# Sclerotinia sclerotiorum = assay: Contact evaluation (microtiter plate); format: cell-based; design: key: Full: fungal inhibition was rated as full, partial, or none; Partial: fungal inhibition was rated as full, partial, or none; None: fungal inhibition was rated as full, partial, or none; conditions: Sclerotinia sclerotionum
# Description: as §1
# [3] = system: Phaseolus vulgaris (Bush bean cv. Blue Lake 274); assay: Detached bean leaf bioassay, phytotoxicity rating; format: in vivo
# Description: Compound solution: Compound solutions were prepared by diluting compound stock solutions (1.0% w/v compound in DMSO) to 200 ppm with 0.01% w/v Triton X-100. Plant material: Middle trifoliate leaves of greenhouse grown Phaseolus vulgaris (Bush bean cv. Blue Lake 274) were excised and placed on a plastic grid above a tray containing moist towels. Treatment method: One half of the adaxial surface of the leaf was treated with the compound solution (100:L) using a 3 cm Bacti Cell Spreader. A blank consisted of 0.01% w/v Triton X-100. A commercial fungicide control (200 ppm diluted with water) consisted of Scala. After the solutions dried, the trays containing the leaves were covered and held one day in a growth chamber (22C). The adaxial surfaces of the leaves were then inoculated with 5–60:L droplets of Botrytis cinerea spore solution. Phytotoxicity ratings: Phytotoxicity was rated as 0=no phytotoxicity, 1=slight phytotoxicity, 2=moderate phytotoxicity, or 3=excessive phytotoxicity (Table 2).
compound,measurement,setting,value
C/C1=C\C=C\CCC(C)CNC(=O)/C=C/C=C/C(C)C(O)C/C=C(\C)C1 (centres unmarked) [formula I],Botrytis cinerea control (200 ppm),Botrytis cinerea [1],31%
same,"Control of fungi (full, partial, none)",Pythium aphanidermatum; fungicide rate 2 ppm,Full
same,"Control of fungi (full, partial, none)",Pythium aphanidermatum; fungicide rate 10 ppm,Full
same,"Control of fungi (full, partial, none)",Pythium aphanidermatum; fungicide rate 20 ppm,Full
same,"Control of fungi (full, partial, none)",Rhizoctonia solani; fungicide rate 2 ppm,Full
same,"Control of fungi (full, partial, none)",Rhizoctonia solani; fungicide rate 10 ppm,Full
same,"Control of fungi (full, partial, none)",Rhizoctonia solani; fungicide rate 20 ppm,Full
same,"Control of fungi (full, partial, none)",Botrytis cinerea [2]; fungicide rate 2 ppm,Full
same,"Control of fungi (full, partial, none)",Botrytis cinerea [2]; fungicide rate 10 ppm,Full
same,"Control of fungi (full, partial, none)",Botrytis cinerea [2]; fungicide rate 20 ppm,Full
same,"Control of fungi (full, partial, none)",Monilinia laxa; fungicide rate 2 ppm,Full
same,"Control of fungi (full, partial, none)",Monilinia laxa; fungicide rate 10 ppm,Full
same,"Control of fungi (full, partial, none)",Monilinia laxa; fungicide rate 20 ppm,Full
same,"Control of fungi (full, partial, none)",Mycosphaerella fijiensis; fungicide rate 2 ppm,Full
same,"Control of fungi (full, partial, none)",Mycosphaerella fijiensis; fungicide rate 10 ppm,Full
same,"Control of fungi (full, partial, none)",Mycosphaerella fijiensis; fungicide rate 20 ppm,Full
same,"Control of fungi (full, partial, none)",Cercospora arachidicola; fungicide rate 2 ppm,Full
same,"Control of fungi (full, partial, none)",Cercospora arachidicola; fungicide rate 10 ppm,Full
same,"Control of fungi (full, partial, none)",Cercospora arachidicola; fungicide rate 20 ppm,Full
same,"Control of fungi (full, partial, none)",Sclerotinia sclerotiorum; fungicide rate 2 ppm,Full
same,"Control of fungi (full, partial, none)",Sclerotinia sclerotiorum; fungicide rate 10 ppm,Full
same,"Control of fungi (full, partial, none)",Sclerotinia sclerotiorum; fungicide rate 20 ppm,Full
same,Phytotoxity (200 ppm),[3],None

# From patent publication US7276493B2, “Fungicide for treating plants” (Valent BioSciences Corporation, priority 2003, dated 2007)
